Assay results published in US5780605A, “6,9-bridged erythromycin derivatives” (Abbott Laboratories, priority 1997, dated 1998).

Tests used:
Experiment in all cases: in vitro antibacterial activity (MIC), BHI agar dilution
Type in all cases: cell-based
Escherichia coli DC-2 = settings: E. coli DC-2, 35-37° C., 20 to 24 hours
Method: (§1) Representative compounds of the present invention were assayed in vitro for antibacterial activity as follows: Twelve petri dishes containing successive aqueous dilutions of the test compound mixed with 10 mL of sterilized Brain Heart Infusion (BHI) agar (Difco 0418-01-5) were prepared. Each plate was inoculated with 1:100 (or 1:10 for slow-growing strains, such as Micrococcus and Streptococcus) dilutions of up to 32 different microorganisms, using a Steers replicator block. […] In addition, a control plate, using BHI agar containing no test compound, was prepared and incubated at the beginning and end of each test.
(§2) An additional plate containing a compound having known susceptibility patterns for the organisms being tested and belonging to the same antibiotic class as the test compound was also prepared and incubated as a further control, as well as to provide test-to-test comparability.
(§3) After incubation, each plate was visually inspected. The minimum inhibitory concentration (MIC) was defined as the lowest concentration of drug yielding no growth, a slight haze, or sparsely isolated colonies on the inoculum spot as compared to the growth control.

Escherichia coli JUHL = settings: E. coli JUHL, 35-37° C., 20 to 24 hours
Method: as §1, §2, §3

[1] = system: Staphylococcus aureus CMX 642A; settings: S. aureus CMX 642A, 35-37° C., 20 to 24 hours
Method: as §1, §2, §3

[2] = system: Staphylococcus aureus NCTC10649M; settings: S. aureus NCTC10649M, 35-37° C., 20 to 24 hours
Method: as §1, §2, §3

[3] = system: Streptococcus pyogenes 930; settings: S. pyogenes 930, 35-37° C., 20 to 24 hours
Method: as §1, §2, §3

[4] = system: Staphylococcus aureus A-5278; settings: S. aureus A-5278, 35-37° C., 20 to 24 hours
Method: as §1, §2, §3

[5] = system: Micrococcus luteus ATCC 9341; settings: M. luteus ATCC 9341, 35-37° C., 20 to 24 hours
Method: as §1, §2, §3

[6] = system: Streptococcus pyogenes PIU 2548; settings: S. pyogenes PIU 2548, 35-37° C., 20 to 24 hours
Method: as §1, §2, §3

[7] = system: Streptococcus pyogenes EES61; settings: S. pyogenes EES61, 35-37° C., 20 to 24 hours
Method: as §1, §2, §3

[8] = system: Streptococcus Pheumoniae ATCC6303; settings: 35-37° C., 20 to 24 hours
Method: as §1, §2, §3

[9] = system: Streptococcus Pheumoniae GYR 1171; settings: 35-37° C., 20 to 24 hours
Method: as §1, §2, §3

[10] = system: Haemophilis Influenzae DILL AMP R; settings: 35-37° C., 20 to 24 hours
Method: as §1, §2, §3

[11] = system: Staphylococcus aureus ATCC 6538P; settings: S. aureus ATCC 6538P, 35-37° C., 20 to 24 hours
Method: as §1, §2, §3

[12] = system: Enterococcus faecium ATCC 8043; settings: E. faecium ATCC 8043, 35-37° C., 20 to 24 hours
Method: as §1, §2, §3

[13] = system: Staphylococcus epidermidis 3519; settings: S. epidermidis 3519, 35-37° C., 20 to 24 hours
Method: as §1, §2, §3

[14] = system: Micrococcus luteus ATCC 4698; settings: M. luteus ATCC 4698, 35-37° C., 20 to 24 hours
Method: as §1, §2, §3

[15] = system: Staphylococcus aureus A5177; settings: S. aureus A5177, 35-37° C., 20 to 24 hours
Method: as §1, §2, §3

[16] = system: Mycobacterium smegmafis ATCC 114; settings: 35-37° C., 20 to 24 hours
Method: as §1, §2, §3

[17] = system: Streptococcus agalactiae CMX 508; settings: S. agalactiae CMX 508, 35-37° C., 20 to 24 hours
Method: as §1, §2, §3

[18] = system: Staphylococcus aureus CMX 553; settings: S. aureus CMX 553, 35-37° C., 20 to 24 hours
Method: as §1, §2, §3

[19] = system: Streptococcus bovis A-5169; settings: S. bovis A-5169, 35-37° C., 20 to 24 hours
Method: as §1, §2, §3

[20] = system: Staphylococcus aureus 1775; settings: S. aureus 1775, 35-37° C., 20 to 24 hours
Method: as §1, §2, §3

[21] = system: Streptococcus Pheumoniae 5649; settings: 35-37° C., 20 to 24 hours
Method: as §1, §2, §3

Candida albicans CCH 442 = settings: C. albicans CCH 442, 35-37° C., 20 to 24 hours
Method: as §1, §2, §3

[22] = system: Streptococcus Pheumoniae 5979; settings: 35-37° C., 20 to 24 hours
Method: as §1, §2, §3

Escherichia coli SS = settings: E. coli SS, 35-37° C., 20 to 24 hours
Method: as §1, §2, §3

[23] = system: Nocardia Asteroides ATCC9970; settings: 35-37° C., 20 to 24 hours
Method: as §1, §2, §3

## CC[C@H]1OC(=O)[C@H](C)[C@@H](O[C@H]2C[C@@](C)(OC)[C@@H](O)[C@H](C)O2)[C@H](C)[C@@H](O[C@@H]2O[C@H](C)C[C@H](N(C)C)[C@H]2O)[C@](C)(O)C[C@@H](C)C(=O)[C@H](C)[C@@H](O)[C@]1(C)O [Ery. A, Erythromycin A, reference compound]
Escherichia coli DC-2
  MIC (minimum inhibitory concentration): > 100
Escherichia coli JUHL
  MIC (minimum inhibitory concentration): > 100
[1]
  MIC (minimum inhibitory concentration): 0.39
[2]
  MIC (minimum inhibitory concentration): 0.39
[3]
  MIC (minimum inhibitory concentration): > 100
[4]
  MIC (minimum inhibitory concentration): > 100
[5]
  MIC (minimum inhibitory concentration): 0.05
[6]
  MIC (minimum inhibitory concentration): 6.2
[7]
  MIC (minimum inhibitory concentration): 0.05
[8]
  MIC (minimum inhibitory concentration): 0.06
[9]
  MIC (minimum inhibitory concentration): 0.06
[10]
  MIC (minimum inhibitory concentration): 4
[11]
  MIC (minimum inhibitory concentration): 0.2
[12]
  MIC (minimum inhibitory concentration): 0.05
[13]
  MIC (minimum inhibitory concentration): 0.39
[14]
  MIC (minimum inhibitory concentration): 0.2
[15]
  MIC (minimum inhibitory concentration): 3.1
[16]
  MIC (minimum inhibitory concentration): 3.1
[17]
  MIC (minimum inhibitory concentration): 0.05
[18]
  MIC (minimum inhibitory concentration): 0.39
[19]
  MIC (minimum inhibitory concentration): 0.02
[20]
  MIC (minimum inhibitory concentration): > 100
[21]
  MIC (minimum inhibitory concentration): 16
Candida albicans CCH 442
  MIC (minimum inhibitory concentration): > 100

## CC[C@H]1OC(=O)[C@H](C)[C@@H](O[C@H]2C[C@@](C)(OC)[C@@H](O)[C@H](C)O2)[C@H](C)[C@@H](O[C@@H]2O[C@H](C)C[C@H](N(C)C)[C@H]2O)[C@@]2(C)C[C@@H](C)C(=NOCO2)[C@H](C)[C@@H](O)[C@]1(C)O [Example 1]
Escherichia coli DC-2
  MIC (minimum inhibitory concentration): > 100
Escherichia coli JUHL
  MIC (minimum inhibitory concentration): > 100
[1]
  MIC (minimum inhibitory concentration): 12.5
[2]
  MIC (minimum inhibitory concentration): 6.2
[3]
  MIC (minimum inhibitory concentration): > 100
[4]
  MIC (minimum inhibitory concentration): > 100
[5]
  MIC (minimum inhibitory concentration): 0.2
[6]
  MIC (minimum inhibitory concentration): 6.2
[7]
  MIC (minimum inhibitory concentration): 0.39
[22]
  MIC (minimum inhibitory concentration): > 64
[8]
  MIC (minimum inhibitory concentration): 1
[9]
  MIC (minimum inhibitory concentration): 0.5
[10]
  MIC (minimum inhibitory concentration): 32
Escherichia coli SS
  MIC (minimum inhibitory concentration): 1.56
[11]
  MIC (minimum inhibitory concentration): 6.2
[12]
  MIC (minimum inhibitory concentration): 1.56
[13]
  MIC (minimum inhibitory concentration): 6.2
[14]
  MIC (minimum inhibitory concentration): 1.56
[23]
  MIC (minimum inhibitory concentration): 0.39
[15]
  MIC (minimum inhibitory concentration): > 100
[16]
  MIC (minimum inhibitory concentration): 1.56
[17]
  MIC (minimum inhibitory concentration): 0.39
[18]
  MIC (minimum inhibitory concentration): 6.2
[19]
  MIC (minimum inhibitory concentration): 0.39
[20]
  MIC (minimum inhibitory concentration): > 100
[21]
  MIC (minimum inhibitory concentration): 4
Candida albicans CCH 442
  MIC (minimum inhibitory concentration): > 100

## CC[C@H]1OC(=O)[C@H](C)[C@@H](O[C@H]2C[C@@](C)(OC)[C@@H](O)[C@H](C)O2)[C@H](C)[C@@H](O[C@@H]2O[C@H](C)C[C@H](N(C)C)[C@H]2O)[C@@]2(C)C[C@@H](C)C(=NOCO2)[C@H](C)[C@H]2OC(=O)O[C@@]21C [Example 2]
Escherichia coli DC-2
  MIC (minimum inhibitory concentration): 25
Escherichia coli JUHL
  MIC (minimum inhibitory concentration): 50
[1]
  MIC (minimum inhibitory concentration): 0.39
[3]
  MIC (minimum inhibitory concentration): > 100
[4]
  MIC (minimum inhibitory concentration): > 100
[5]
  MIC (minimum inhibitory concentration): 0.1
[6]
  MIC (minimum inhibitory concentration): 3.1
[7]
  MIC (minimum inhibitory concentration): <= 0.005
[22]
  MIC (minimum inhibitory concentration): > 128
[8]
  MIC (minimum inhibitory concentration): 0.06
[9]
  MIC (minimum inhibitory concentration): 0.03
[10]
  MIC (minimum inhibitory concentration): 2
Escherichia coli SS
  MIC (minimum inhibitory concentration): 0.78
[11]
  MIC (minimum inhibitory concentration): 0.39
[12]
  MIC (minimum inhibitory concentration): 0.1
[13]
  MIC (minimum inhibitory concentration): 0.39
[14]
  MIC (minimum inhibitory concentration): 0.39
[23]
  MIC (minimum inhibitory concentration): 0.1
[15]
  MIC (minimum inhibitory concentration): 3.1
[16]
  MIC (minimum inhibitory concentration): 3.1
[17]
  MIC (minimum inhibitory concentration): 0.05
[18]
  MIC (minimum inhibitory concentration): 0.78
[19]
  MIC (minimum inhibitory concentration): 0.02
[20]
  MIC (minimum inhibitory concentration): > 100
[21]
  MIC (minimum inhibitory concentration): 4
Candida albicans CCH 442
  MIC (minimum inhibitory concentration): > 100

## CC[C@H]1OC(=O)[C@H](C)C(=O)[C@H](C)[C@@H](O[C@@H]2O[C@H](C)C[C@H](N(C)C)[C@H]2O)[C@@]2(C)C[C@@H](C)C(=NOCO2)[C@H](C)[C@H]2OC(=O)O[C@@]21C [Example 3]
Escherichia coli DC-2
  MIC (minimum inhibitory concentration): > 100
Escherichia coli JUHL
  MIC (minimum inhibitory concentration): > 100
[1]
  MIC (minimum inhibitory concentration): 3.1
[2]
  MIC (minimum inhibitory concentration): 3.1
[3]
  MIC (minimum inhibitory concentration): > 100
[4]
  MIC (minimum inhibitory concentration): > 100
[5]
  MIC (minimum inhibitory concentration): 0.39
[6]
  MIC (minimum inhibitory concentration): 0.78
[7]
  MIC (minimum inhibitory concentration): 0.39
[22]
  MIC (minimum inhibitory concentration): > 128
[8]
  MIC (minimum inhibitory concentration): 1
[9]
  MIC (minimum inhibitory concentration): 0.25
[10]
  MIC (minimum inhibitory concentration): 16
Escherichia coli SS
  MIC (minimum inhibitory concentration): 0.78
[11]
  MIC (minimum inhibitory concentration): 3.1
[12]
  MIC (minimum inhibitory concentration): 0.78
[13]
  MIC (minimum inhibitory concentration): 3.1
[14]
  MIC (minimum inhibitory concentration): 0.78
[23]
  MIC (minimum inhibitory concentration): 0.78
[15]
  MIC (minimum inhibitory concentration): 3.1
[16]
  MIC (minimum inhibitory concentration): 25
[17]
  MIC (minimum inhibitory concentration): 0.78
[18]
  MIC (minimum inhibitory concentration): 3.1
[19]
  MIC (minimum inhibitory concentration): 0.2
[20]
  MIC (minimum inhibitory concentration): > 100
[21]
  MIC (minimum inhibitory concentration): 0.5
Candida albicans CCH 442
  MIC (minimum inhibitory concentration): > 100
